Experiments:
[1] = system: IL-8-induced neutrophil shape change in human whole blood; assay: Whole blood neutrophil shape change assay (L); type: cell-based; conditions: Homo sapiens, Neutrophil, IL-8, human whole blood, read-out: Assay L WBSC IC50
PI 3-kinase beta [2] = molecular target: T1, PI 3-kinase beta (Homo sapiens, UniProt P42338); assay: Cellular assay I1, p-Akt (S473) in Rat-1 cells, Surefire format; type: cell-based; conditions: non-asterisked data: version I1 (Surefire format), Rat-1 cells; read-out: Assay I PI3Kβ IC50
PI 4-kinase beta = PI 4-kinase beta (Homo sapiens, UniProt Q9UBF8); assay: Kinase Glo Luminescent Kinase Assay (Kglo), assay D; type: biochemical; conditions: read-out: Assay D PI4Kβ IC50
PI 4-kinase beta, sequence (Q9UBF8 whole entry): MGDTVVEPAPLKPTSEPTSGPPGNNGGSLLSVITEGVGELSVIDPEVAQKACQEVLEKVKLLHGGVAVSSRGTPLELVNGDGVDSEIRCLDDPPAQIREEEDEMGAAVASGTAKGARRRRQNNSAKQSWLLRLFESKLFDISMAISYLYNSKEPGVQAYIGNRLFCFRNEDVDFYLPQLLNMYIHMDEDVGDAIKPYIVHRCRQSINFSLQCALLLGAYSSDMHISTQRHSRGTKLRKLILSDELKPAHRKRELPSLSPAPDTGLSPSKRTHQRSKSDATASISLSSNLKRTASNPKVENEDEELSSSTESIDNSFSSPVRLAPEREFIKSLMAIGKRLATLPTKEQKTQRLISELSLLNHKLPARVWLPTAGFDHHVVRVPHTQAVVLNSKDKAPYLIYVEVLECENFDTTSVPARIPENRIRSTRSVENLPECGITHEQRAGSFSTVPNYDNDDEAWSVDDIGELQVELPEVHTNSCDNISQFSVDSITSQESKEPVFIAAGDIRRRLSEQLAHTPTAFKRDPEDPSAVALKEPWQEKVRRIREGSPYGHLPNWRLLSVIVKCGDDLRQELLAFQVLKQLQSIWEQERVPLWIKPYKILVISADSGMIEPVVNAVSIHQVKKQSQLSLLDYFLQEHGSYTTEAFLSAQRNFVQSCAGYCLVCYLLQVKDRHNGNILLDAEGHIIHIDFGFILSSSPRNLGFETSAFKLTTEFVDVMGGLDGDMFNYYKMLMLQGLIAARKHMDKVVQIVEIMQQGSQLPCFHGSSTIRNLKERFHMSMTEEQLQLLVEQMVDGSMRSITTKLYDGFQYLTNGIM

PI 3-kinase delta [3] = molecular target: T2, PI 3-kinase delta (Homo sapiens, UniProt O00329); assay: Cellular assay J1, p-Akt (S473) in Rat-1 cells, Surefire format; type: cell-based; conditions: non-asterisked data: version J1 (Surefire format), Rat-1 cells; read-out: Assay J PI3Kδ IC50
Target sequence in this assay (O00329 whole entry): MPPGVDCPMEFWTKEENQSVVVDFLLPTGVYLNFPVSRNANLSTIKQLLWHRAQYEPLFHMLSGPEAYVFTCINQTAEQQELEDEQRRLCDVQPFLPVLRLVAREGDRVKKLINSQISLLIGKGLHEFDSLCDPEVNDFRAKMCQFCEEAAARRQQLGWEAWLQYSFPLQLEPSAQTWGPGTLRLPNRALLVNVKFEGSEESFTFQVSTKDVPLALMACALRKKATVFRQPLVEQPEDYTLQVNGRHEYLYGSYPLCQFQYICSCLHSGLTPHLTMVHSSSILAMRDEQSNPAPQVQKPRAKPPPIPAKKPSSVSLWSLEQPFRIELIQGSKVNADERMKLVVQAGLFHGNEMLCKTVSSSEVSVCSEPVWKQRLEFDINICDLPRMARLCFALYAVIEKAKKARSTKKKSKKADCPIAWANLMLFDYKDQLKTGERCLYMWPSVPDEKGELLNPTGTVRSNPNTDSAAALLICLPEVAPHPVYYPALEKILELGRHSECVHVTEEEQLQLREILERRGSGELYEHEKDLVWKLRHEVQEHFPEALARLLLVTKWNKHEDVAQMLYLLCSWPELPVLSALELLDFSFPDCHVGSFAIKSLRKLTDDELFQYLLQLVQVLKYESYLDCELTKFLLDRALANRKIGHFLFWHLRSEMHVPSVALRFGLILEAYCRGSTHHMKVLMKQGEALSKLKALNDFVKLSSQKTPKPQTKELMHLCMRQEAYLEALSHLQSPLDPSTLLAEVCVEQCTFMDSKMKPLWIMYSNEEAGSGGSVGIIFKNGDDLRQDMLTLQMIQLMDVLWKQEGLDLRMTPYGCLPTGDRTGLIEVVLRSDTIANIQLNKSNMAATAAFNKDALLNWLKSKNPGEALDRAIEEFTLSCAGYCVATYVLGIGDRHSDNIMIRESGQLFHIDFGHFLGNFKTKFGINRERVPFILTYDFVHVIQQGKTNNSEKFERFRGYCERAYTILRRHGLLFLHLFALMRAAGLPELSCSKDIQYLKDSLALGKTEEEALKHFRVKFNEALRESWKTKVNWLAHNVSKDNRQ
Target sequence in this assay (Q63787 whole entry partner): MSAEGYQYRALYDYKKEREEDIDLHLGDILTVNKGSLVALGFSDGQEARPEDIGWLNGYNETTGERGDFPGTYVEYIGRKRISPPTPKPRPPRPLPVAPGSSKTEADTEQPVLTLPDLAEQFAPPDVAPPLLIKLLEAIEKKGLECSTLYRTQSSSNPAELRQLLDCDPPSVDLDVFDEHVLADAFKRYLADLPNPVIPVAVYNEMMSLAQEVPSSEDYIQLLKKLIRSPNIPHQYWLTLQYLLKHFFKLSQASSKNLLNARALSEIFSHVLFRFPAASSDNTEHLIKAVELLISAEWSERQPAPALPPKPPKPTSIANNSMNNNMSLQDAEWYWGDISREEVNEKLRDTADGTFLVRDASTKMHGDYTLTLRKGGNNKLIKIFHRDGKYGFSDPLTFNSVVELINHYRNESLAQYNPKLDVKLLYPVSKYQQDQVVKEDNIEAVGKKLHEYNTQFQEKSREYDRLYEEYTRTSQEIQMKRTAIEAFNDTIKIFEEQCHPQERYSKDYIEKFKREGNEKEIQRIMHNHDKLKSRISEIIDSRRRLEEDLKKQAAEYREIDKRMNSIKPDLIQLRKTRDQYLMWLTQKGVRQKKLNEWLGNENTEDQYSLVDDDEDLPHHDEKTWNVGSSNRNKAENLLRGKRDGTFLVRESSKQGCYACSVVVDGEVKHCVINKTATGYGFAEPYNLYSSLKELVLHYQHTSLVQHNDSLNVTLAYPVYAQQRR

mTOR = mTOR (Homo sapiens, UniProt P42345); assay: Lanthascreen kinase binding assay, assay G; conditions: read-out: Assay G mTOR IC50
Experimental: Lanthascreen™ Kinase Binding Assay for mTOR (G)
Binding of an inhibitor to the kinase competes for binding with the tracer, resulting in a loss of FRET.
50 nL of compound dilutions were dispensed onto white 384-well small volume polystyrene plate.

PI 3-kinase gamma [4] = molecular target: T3, PI 3-kinase gamma (Homo sapiens, UniProt P48736); assay: Cellular U937 AKT assay K1 (MSD); type: cell-based; conditions: U937 cells, K1 format; read-out: Assay K1 PI3Kγ IC50
T3 sequence (P48736 whole entry): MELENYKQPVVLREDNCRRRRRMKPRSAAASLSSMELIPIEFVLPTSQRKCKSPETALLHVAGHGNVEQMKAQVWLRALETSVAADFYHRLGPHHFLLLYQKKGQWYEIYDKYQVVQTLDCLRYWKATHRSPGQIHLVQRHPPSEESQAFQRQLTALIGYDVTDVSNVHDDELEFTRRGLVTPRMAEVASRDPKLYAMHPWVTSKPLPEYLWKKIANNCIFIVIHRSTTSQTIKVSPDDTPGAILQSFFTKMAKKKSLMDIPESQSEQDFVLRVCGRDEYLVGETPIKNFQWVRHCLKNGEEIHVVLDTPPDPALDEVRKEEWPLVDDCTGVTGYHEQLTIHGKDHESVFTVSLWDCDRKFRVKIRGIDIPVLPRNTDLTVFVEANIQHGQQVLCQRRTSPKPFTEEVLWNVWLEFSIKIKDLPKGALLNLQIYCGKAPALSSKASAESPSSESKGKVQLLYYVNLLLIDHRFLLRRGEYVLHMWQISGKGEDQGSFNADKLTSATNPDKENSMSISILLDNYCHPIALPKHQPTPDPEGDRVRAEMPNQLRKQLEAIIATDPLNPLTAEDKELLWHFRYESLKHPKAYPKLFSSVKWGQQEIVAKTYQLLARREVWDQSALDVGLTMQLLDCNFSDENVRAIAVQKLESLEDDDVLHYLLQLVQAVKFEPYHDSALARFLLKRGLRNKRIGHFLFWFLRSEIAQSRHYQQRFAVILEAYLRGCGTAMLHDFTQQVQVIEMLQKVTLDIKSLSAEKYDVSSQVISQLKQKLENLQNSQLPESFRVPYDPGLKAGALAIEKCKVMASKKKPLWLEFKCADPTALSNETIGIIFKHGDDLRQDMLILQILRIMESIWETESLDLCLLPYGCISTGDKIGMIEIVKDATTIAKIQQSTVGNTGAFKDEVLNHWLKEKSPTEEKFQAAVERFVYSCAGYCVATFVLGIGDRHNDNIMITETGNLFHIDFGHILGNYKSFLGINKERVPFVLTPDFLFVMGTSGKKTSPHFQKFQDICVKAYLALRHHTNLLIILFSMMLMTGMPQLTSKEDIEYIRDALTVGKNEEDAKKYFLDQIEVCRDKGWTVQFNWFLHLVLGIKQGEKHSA

Vps34 = Vps34 (Homo sapiens, UniProt Q8NEB9); assay: Kinase Glo Luminescent Kinase Assay (Kglo), assay C; type: biochemical; conditions: read-out: Assay C VPS34 IC50
Vps34, sequence (Q8NEB9 whole entry, species assumed): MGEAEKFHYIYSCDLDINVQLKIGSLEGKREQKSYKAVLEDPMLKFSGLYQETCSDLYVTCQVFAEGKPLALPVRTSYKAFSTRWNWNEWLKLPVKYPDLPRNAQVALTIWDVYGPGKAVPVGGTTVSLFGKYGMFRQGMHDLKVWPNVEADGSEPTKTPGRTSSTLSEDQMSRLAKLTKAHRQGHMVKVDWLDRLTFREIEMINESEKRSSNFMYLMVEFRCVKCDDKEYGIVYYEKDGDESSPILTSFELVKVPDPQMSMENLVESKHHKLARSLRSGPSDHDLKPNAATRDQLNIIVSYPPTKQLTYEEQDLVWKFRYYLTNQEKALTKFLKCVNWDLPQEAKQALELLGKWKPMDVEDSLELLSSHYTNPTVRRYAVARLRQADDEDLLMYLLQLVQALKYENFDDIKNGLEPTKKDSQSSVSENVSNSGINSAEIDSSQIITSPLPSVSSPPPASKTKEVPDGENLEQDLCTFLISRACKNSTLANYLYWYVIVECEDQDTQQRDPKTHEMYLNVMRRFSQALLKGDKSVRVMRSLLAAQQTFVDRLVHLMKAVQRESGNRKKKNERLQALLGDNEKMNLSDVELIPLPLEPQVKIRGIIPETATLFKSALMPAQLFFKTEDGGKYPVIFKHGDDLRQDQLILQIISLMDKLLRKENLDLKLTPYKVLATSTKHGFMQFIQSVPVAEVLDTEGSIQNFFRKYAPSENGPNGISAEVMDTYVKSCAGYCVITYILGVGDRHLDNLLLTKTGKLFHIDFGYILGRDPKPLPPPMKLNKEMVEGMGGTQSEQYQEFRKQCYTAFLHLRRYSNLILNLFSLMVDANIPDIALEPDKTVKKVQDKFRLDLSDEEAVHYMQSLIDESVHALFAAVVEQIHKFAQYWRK
Experimental: Kinase Glo Luminescent Kinase Assay (Kglo) for Pb 3-Kinase Alpha (A), Pb 3-Kinase Beta (B), Vps34 (C), Pb 4-Kinase Beta (D)
The Kinase Glo Luminescent Kinase Assay (Promega, Madison/Wis., USA) is a homogeneous HTS method of measuring kinase activity by quantifying the amount of ATP remaining in solution following a kinase reaction.
L-α-phosphatidylinositol (PI), provided as 10 mg/ml solution in methanol, was transferred into a glass tube and dried under a nitrogen beam. It was then resuspended in 3% OctylGlucoside (1-0-n-octyl-beta-D-glucopyranoside) by vortexing and stored at 4° C. 5 μL of a mix of PI/OctylGlucoside with the PI 3-kinase alpha and PI 3-kinase beta subtypes, or Vps34 or PI 4-kinase beta were added. Kinase reactions were started by the addition of 5 μl of an ATP-mix containing in a final volume 10 μL 10 mM TRIS-HCl pH 7.5, 3 mM MgCl2, 50 mM NaCl, 0.05% CHAPS, 1 mM DTT and 1 μM ATP at room temperature.
All fits were performed with the program XLfit4 (ID Business Solutions, Guildford, UK).

PI 3-kinase beta [5] = molecular target: T1, PI 3-kinase beta; assay: Kinase Glo Luminescent Kinase Assay (Kglo), assay B; type: biochemical; conditions: read-out: Assay B PI3Kβ IC50
[6] = Microsomal clearance assay (M); conditions: intrinsic clearance in rat liver microsomes
Experimental: The experiments were performed in 96-well glass plates at 37° C. on an automated Tecan EVO platform. Test compounds at a concentration of 10 mM in pure DMSO were diluted 1:1000 in water to 10 μM. […] Reactions were initiated by the addition of 150 μL of a cofactor solution containing 2 mM NADPH.

PI 3-kinase alpha [7] = molecular target: T4, PI 3-kinase alpha (Homo sapiens, UniProt P42336); assay: Cellular assay H1, p-Akt (S473) in Rat-1 cells, Surefire format; type: cell-based; conditions: non-asterisked data: version H1 (Surefire format), Rat-1 cells; read-out: Assay H PI3Kα IC50
PI 3-kinase delta [8] = molecular target: T2, PI 3-kinase delta; assay: TR-FRET Adapta assay, assay F
Target sequence in this assay (O00329 whole entry): as the sequence (O00329 whole entry) above
Target sequence in this assay (P27986 461-568 partner): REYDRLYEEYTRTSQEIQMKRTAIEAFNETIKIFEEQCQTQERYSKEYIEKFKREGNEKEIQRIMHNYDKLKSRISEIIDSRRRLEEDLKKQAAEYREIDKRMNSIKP

PI 3-kinase gamma [9] = molecular target: T3, PI 3-kinase gamma; assay: TR-FRET Adapta assay, assay E; type: biochemical; conditions: read-out: Assay E PI3Kγ IC50
PI 3-kinase alpha [10] = molecular target: T4, PI 3-kinase alpha; assay: Kinase Glo Luminescent Kinase Assay (Kglo), assay A; type: biochemical; conditions: read-out: Assay A PI3Kα IC50

| Compound | IC50 [1] [µM] | IC50 (PI 3-kinase beta [2]) [µM] | IC50 (PI 4-kinase beta) [µM] | IC50 (PI 3-kinase delta [3]) [µM] | IC50 (mTOR) [µM] | IC50 (PI 3-kinase gamma [4]) [µM] | IC50 (Vps34) [µM] | IC50 (PI 3-kinase beta [5]) [µM] | Assay M RLM CI(int) [6] [µL/min/mg] | IC50 (PI 3-kinase alpha [7]) [µM] | IC50 (PI 3-kinase delta [8]; read-out: Assay F PI3Kδ IC50) [µM] | IC50 (PI 3-kinase gamma [9]) [µM] | IC50 (PI 3-kinase alpha [10]) [µM] | IC50 (PI 3-kinase delta [8]) [µM] |
| --- | --- | --- | --- | --- | --- | --- | --- | --- | --- | --- | --- | --- | --- | --- |
| Cc1ccc(S(=O)(=O)NC[C@H]2CCOC2)cc1-c1cnc(N)c(-c2cn(C)nc2C)n1 [Example 16, 3-[5-Amino-6-(1,3-dimethyl-1H-pyrazol-4-yl)-pyrazin-2-yl]-4-methyl-N—[(R)-1-(tetrahydrofuran-3-yl)methyl]-benzenesulfonamide] | 0.154 | 1.86 | 6.4 | 0.62 | 5.3 | 0.043 | > 10 | 1.02 | 47 | 0.9 | 0.25 | 0.009 | 0.14 | – |
| Cc1ccc(S(=O)(=O)NOCC(C)(C)O)cc1-c1cnc(N)c(-c2cn(C)nc2C)n1 [Example 125, 3-(5-Amino-6-(1,3-dimethyl-1H-pyrazol-4-yl)pyrazin-2-yl)-N-(2-hydroxy-2-methylpropoxy)-4-methylbenzenesulfonamide] | 0.879 | 3.47 | 7.6 | 0.23 | > 10 | 0.051 | > 10 | 6 | 8 | 2.81 | 0.13 | 0.1 | 0.28 | – |
| Cc1cc(-c2nc(-c3cc(S(=O)(=O)N[C@H]4CC[C@H](O)CC4)ccc3C)cnc2N)ccn1 [Example 135, 3-(5-Amino-6-(2-methylpyridin-4-yl)pyrazin-2-yl)-N-((1r,4r)-4-hydroxycyclohexyl)-4-methylbenzenesulfonamide] | 0.359 | 8.75 | 4.16 | 9.39 | 4.37 | 0.063 | > 9.55 | 5.22 | 30 | 7.84 | – | 0.051 | 0.18 | 1.7 |
| Cc1ccc(S(=O)(=O)NCCC(C)(C)O)cc1-c1cnc(N)c(-n2cnc(C3CC3)n2)n1 [Example 26, 3-[5-Amino-6-(3-cyclopropyl-[1,2,4]triazol-1-yl)-pyrazin-2-yl]-N-(3-hydroxy-3-methyl-butyl)-4-methyl-benzenesulfonamide] | 0.683 | 2.03 | 5.47 | 0.76 | > 9.1 | 0.054 | > 9.1 | 6.38 | 223 | 1.1 | 0.07 | 0.003 | 0.31 | – |
| Cc1ccc(S(=O)(=O)NCC2(C)COC2)cc1-c1cnc(N)c(-c2cn(C)nc2C)n1 [Example 17, 3-[5-Amino-6-(1,3-dimethyl-1H-pyrazol-4-yl)-pyrazin-2-yl]-4-methyl-N-(3-methyl-oxetan-3-ylmethyl)-benzenesulfonamide] | 0.166 | 8.25 | 8.3 | 1.92 | 6.1 | 0.051 | > 10 | 0.9 | 34 | 2.8 | 0.59 | 0.01 | 0.22 | – |
| Cc1ncn(-c2nc(-c3cc(S(=O)(=O)NCCC(C)(C)O)ccc3C)cnc2N)n1 [Example 65, 3-(5-Amino-6-(3-methyl-1H-1,2,4-triazol-1-yl)pyrazin-2-yl)-N-(3-hydroxy-3-methylbutyl)-4-methylbenzenesulfonamide] | 0.802 | > 10 | > 9.1 | 1.44 | > 9.1 | 0.155 | > 9.1 | 4.03 | 87 | 1.45 | 0.24 | 0.022 | 0.44 | – |
| Cc1cn(-c2nc(-c3cc(S(=O)(=O)N[C@H]4CC[C@H](O)CC4)ccc3C)cnc2N)cn1 [Example 56, Trans-3-(5-Amino-6-(4-methyl-1H-imidazol-1-yl)pyrazin-2-yl)-N-(-4-hydroxycyclohexyl)-4-methylbenzenesulfonamide] | 0.211 | 5.88 | 7.27 | 3.12 | 2.38 | 0.129 | 3.52 | 1.75 | 24 | 4.4 | 0.08 | 0.019 | 0.29 | – |
| Cc1ccc(S(=O)(=O)NC2CC3(CC(O)C3)C2)cc1-c1cnc(N)c(-n2cncn2)n1 (centres unmarked) [Example 67, 3-(5-Amino-6-(1H-1,2,4-triazol-1-yl)pyrazin-2-yl)-N-(6-hydroxyspiro[3.3]heptan-2-yl)-4-methylbenzenesulfonamide] | 0.249 | 2.93 | 7.4 | 0.92 | 2.2 | 0.068 | 1.8 | 0.86 | 36 | 1.33 | 0.16 | 0.003 | 0.09 | – |
| Cc1ccc(S(=O)(=O)NCCC(C)(C)O)cc1-c1cnc(N)c(-n2cncn2)n1 [Example 64, 3-(5-Amino-6-(1H-1,2,4-triazol-1-yl)pyrazin-2-yl)-N-(3-hydroxy-3-methylbutyl)-4-methylbenzenesulfonamide] | 0.543 | 4.37 | 6.61 | 1.19 | > 9.1 | 0.189 | 8.49 | 3.85 | 61 | 1.24 | 0.25 | 0.046 | 0.37 | – |

Further lines, results first:

| IC50 [1] [µM] | IC50 (PI 3-kinase beta [2]) [µM] | IC50 (PI 4-kinase beta) [µM] | IC50 (PI 3-kinase delta [3]) [µM] | IC50 (mTOR) [µM] | IC50 (PI 3-kinase gamma [4]) [µM] | IC50 (Vps34) [µM] | IC50 (PI 3-kinase beta [5]) [µM] | Assay M RLM CI(int) [6] [µL/min/mg] | IC50 (PI 3-kinase alpha [7]) [µM] | IC50 (PI 3-kinase delta [8]; read-out: Assay F PI3Kδ IC50) [µM] | IC50 (PI 3-kinase gamma [9]) [µM] | IC50 (PI 3-kinase alpha [10]) [µM] | IC50 (PI 3-kinase delta [8]) [µM] | Compound |
| --- | --- | --- | --- | --- | --- | --- | --- | --- | --- | --- | --- | --- | --- | --- |
| 0.963 | > 10 | 4.41 | 2.15 | 6 | 0.179 | > 9.1 | 7.38 | 44 | 1.25 | 0.19 | 0.049 | 0.23 | – | Cc1cc(-c2nc(-c3cc(S(=O)(=O)NCCC(C)(C)O)ccc3C)cnc2N)ccn1 [Example 119.28] |
| 2.18 | 4.07 | > 9.1 | 2.38 | > 9.1 | 0.333 | > 9.1 | > 9.1 | 101 | 2.74 | 0.25 | 0.05 | 0.45 | – | COc1ccncc1-c1nc(-c2cc(S(=O)(=O)NCCC(C)(C)O)ccc2C)cnc1N [Example 119.2] |
| 1.49 | 7.42 | 4.25 | 1.27 | 6.59 | 0.041 | > 9.1 | 3.51 | 49 | 2.27 | 0.22 | 0.013 | 0.18 | – | CCn1cc(-c2nc(-c3cc(S(=O)(=O)NCCC(C)(C)O)ccc3C)cnc2N)cn1 [Example 119.34] |
| 1.24 | 3.7 | 6.61 | 2.35 | > 9.1 | 0.081 | 6.23 | 3.79 | 21 | 4.01 | 0.19 | 0.022 | 0.39 | – | Cc1ccc(S(=O)(=O)NCCC(C)(C)O)cc1-c1cnc(N)c(-c2cnn(C)c2)n1 [Example 119.16] |
| 3.43 | > 10 | 7.2 | 4.37 | 3.02 | 0.251 | > 9.1 | 5.11 | 21 | 8.58 | 0.47 | 0.066 | 0.33 | – | Cc1cc(-c2nc(-c3cc(S(=O)(=O)NC4CCC(C)(O)CC4)ccc3C)cnc2N)ccn1 (centres unmarked) [Example 129.19, 3-(5-amino-6-(2-methylpyridin-4-yl)pyrazin-2-yl)-N-(4-hydroxy-4-methylcyclohexyl)-4-methylbenzenesulfonamide] |
